Values quoted from earlier work in patent publication US20250108061A1, “METHOD FOR TREATING ENDOMETRIOSIS AND PROVIDING EFFECTIVE CONTRACEPTION” (CHEMO RESEARCH, S.L., priority 2021, published 2025).

How the values were obtained:
[1] = system: women
[2] = system: women; settings: at high dosages (5-15 mg/daily)

| SMILES | ovulation inhibition / ovarian activity ([1]; 2 mg daily) | dosage necessary for ovulation inhibition ([1]; given continuously over 28 days) [mg/daily] | androgenic side effects [2] |
| --- | --- | --- | --- |
| C[C@]12CCC3=C4CCC(=O)C=C4CC[C@H]3[C@@H]1CC[C@@]2(O)CC#N [DNG, Dienogest] | provides ovulation inhibition, but ovarian activity is not completely suppressed | – | – |
| C#C[C@]1(OC(C)=O)CC[C@H]2[C@@H]3CCC4=CC(=O)CC[C@@H]4[C@H]3CC[C@@]21C [NETA, norethisterone acetate] | – | 0.35 | can produce androgenic side effects, such as acne, hirsutism, weight gain and voice changes of slight severity in some women |
